# From patent US8119647B2, “Fused pyrimidineone compounds as TRPV3 modulators” (Glenmark Pharmaceuticals S.A., priority 2008, dated 2012)
# Biological target: T1, Human TRPV3 (Homo sapiens, UniProt Q8NET8)
# T1 construct: expressed in transfected cells; host or cells: CHO cells (G-418 selection)
# T1 sequence (Q8NET8 1-790): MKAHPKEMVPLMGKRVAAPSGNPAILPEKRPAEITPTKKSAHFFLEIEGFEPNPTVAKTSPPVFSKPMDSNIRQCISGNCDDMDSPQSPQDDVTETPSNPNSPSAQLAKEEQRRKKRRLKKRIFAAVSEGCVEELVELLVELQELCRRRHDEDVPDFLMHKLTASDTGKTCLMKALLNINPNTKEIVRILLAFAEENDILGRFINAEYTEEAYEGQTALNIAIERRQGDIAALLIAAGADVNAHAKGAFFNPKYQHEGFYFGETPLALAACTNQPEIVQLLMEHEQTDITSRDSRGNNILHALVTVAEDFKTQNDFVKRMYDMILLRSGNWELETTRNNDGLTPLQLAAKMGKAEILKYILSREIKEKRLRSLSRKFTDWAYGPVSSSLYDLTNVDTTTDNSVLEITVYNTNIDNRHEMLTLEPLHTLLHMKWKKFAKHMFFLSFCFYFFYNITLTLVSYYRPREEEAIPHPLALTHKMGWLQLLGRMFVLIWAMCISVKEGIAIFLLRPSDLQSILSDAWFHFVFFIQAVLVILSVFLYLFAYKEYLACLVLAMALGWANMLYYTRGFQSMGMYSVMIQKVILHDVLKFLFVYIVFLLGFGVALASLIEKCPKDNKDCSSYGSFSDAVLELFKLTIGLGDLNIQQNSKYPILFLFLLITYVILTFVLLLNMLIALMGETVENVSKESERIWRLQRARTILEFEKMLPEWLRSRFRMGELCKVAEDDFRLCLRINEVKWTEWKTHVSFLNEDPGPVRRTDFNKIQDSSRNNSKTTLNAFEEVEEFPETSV
# Test: Screening for TRPV3 antagonist using the 45Calcium uptake assay (inhibition of 2-APB induced cellular uptake of radioactive calcium)
# Assay type: cell-based
# Details: human TRPV3 expressing CHO cells, 2-APB 500 μM; for inhibition at 1 µM / Percentage inhibition at 1.0 μM: 1.0 μM test compound; for inhibition at 1 µM: read-out: Percentage inhibition at 1.0 μM; for inhibition at 10 µM / Percentage inhibition at 10.0 μM: 10.0 μM test compound; for inhibition at 10 µM: read-out: Percentage inhibition at 10.0 μM; for IC50: class symbols
# From the text: The illustrative examples of the present invention are screened for TRPV3 activity according to a modified procedure described in Tóth, A., Kedei, N., Wang, Y. and Blumberg, P. M. Life Sciences (2003), 73, 487-498. The screening of the compounds can be carried out by other methods and procedures known to a person skilled in the art. Such screening methods may be found in (a) Hu, H.-Z. et al. J. Biol. Chem. (2004), 279, 35741-35747; (b) Smith, G. D. et al. Nature (2002), 418, 186-190; (c) Peier, A. M. et al. Science (2002), 296, 2046-2049.
# Screening for TRPV3 Antagonist Using the ^45Calcium Uptake Assay:
# The inhibition of TRPV3 receptor activation was followed as inhibition of 2-aminoethoxydiphenylborate (2-APB) induced cellular uptake of radioactive calcium. Test compounds were dissolved in dimethyl sulfoxide (DMSO) to prepare 20 mM stock solution and then diluted using plain medium with DMEM/F-12 containing 1.8 mM CaCl2 to get desired concentration. Final concentration of DMSO in the reaction was 0.5% (v/v). Human TRPV3 expressing CHO cells were grown in DMEM/F-12 medium with 10% FBS, 1% penicillin-streptomycin solution, 400 μg/ml of G-418. Cells were seeded 24 h prior to the assay in 96 well plates so as to get ˜50,000 cells per well on the day of experiment. Cells were treated with test compounds for 10 minutes followed by addition of 2-APB at a final concentration of 500 μM and 5 μCi/ml ^45Ca^+2 for 4 minutes. Cells were washed and lysed using buffer containing 1% Triton X-100, 0.1% deoxycholate and 0.1% SDS. Radioactivity in the lysate was measured in Packardt Top count after addition of liquid scintillant. Concentration response curves were plotted as a % of maximal response obtained in the absence of test antagonist. IC50 value was calculated from concentration response curve by nonlinear regression analysis using GraphPad PRISM software.
# Percentage inhibition at concentrations of 1.0 μM and 10.0 μM are given in the table along with IC50 (nM) values for selected examples.
SMILES,inhibition at 1 µM,inhibition at 10 µM,IC50,Percentage inhibition at 1.0 μM,Percentage inhibition at 10.0 μM
"COc1cccc(/C=C/c2nc3sccn3c(=O)c2-c2ccc(N(C)C)cc2)c1OCC1CC1 [Example 6, 6-(4-Dimethylaminophenyl)-7-[(E)-2-(2-cyclopropylmethoxy-3-methoxyphenyl]-1-ethenyl]-5H-[1,3]thiazolo[3,2-a]pyrimidin-5-one]",76%,95.3%,250 to 500 nM,,
"CCOc1cccc(/C=C/c2nc3sccn3c(=O)c2-c2ccc(OC(F)(F)F)cc2)c1OCC1CC1 [Example 61, 7-{(E)-2-[2-(Cyclopropylmethoxy)-3-ethoxyphenyl}-1-ethenyl]-6-(4-trifluoromethoxy-phenyl)-5H-[1,3]thiazolo[3,2-a]pyrimidin-5-one]",22.7%,60.6%,,,
"COc1cccc(/C=C/c2nc3sccn3c(=O)c2-c2ccc(C#N)cc2)c1OCC1CCC1 [Example 17, 4-{7-[(E)-2-(2-Cyclobutylmethoxy-3-methoxy)phenyl-1-ethenyl]-5-oxo-5H-[1,3]-thiazolo[3,2-a]pyrimidin-6-yl}benzonitrile]",73%,91.1%,< 250 nM,,
O=c1c(-c2ccc(OC(F)(F)F)cc2)c(/C=C/c2cccc(O)c2OCC2CC2)nc2sccn12 [Example 60],,,,41.32%,81.57%
"COc1cccc(/C=C/c2nc3sccn3c(=O)c2-c2ccc(C(F)(F)F)cc2)c1OCC(C)C [Example 27, 7-[(E)-2-(2-Isobutoxy-3-methoxyphenyl)-1-ethenyl]-6-[4-(trifluoromethyl)phenyl]-5H-[1,3]thiazolo[3,2-a]pyrimidin-5-one]",69.6%,88%,< 250 nM,,
"COc1cc(/C=C/c2nc3sccn3c(=O)c2-c2ccc(C(F)(F)F)cc2)ccc1OCC1CC1 [Example 38, 7-[(E)-2-(4-Cyclopropylmethoxy-3-methoxyphenyl)-1-ethenyl]-6-[4-(trifluoromethyl)-phenyl]-5H-[1,3]thiazolo[3,2-a]pyrimidin-5-one]",28.6%,50.2%,,,
COc1cccc(/C=C/c2nc3sccn3c(=O)c2-c2cc(F)cc(F)c2)c1OCC1CC1 [Example 8],,,,2.0%,20.5%
"COc1cccc(/C=C/c2nc3sccn3c(=O)c2-c2ccc(C(F)(F)F)cc2)c1OC1CCCC1 [Example 35, 7-[(E)-2-(2-Cyclopentyloxy-3-methoxyphenyl)-1-ethenyl]-6-[4-(trifluoromethyl)phenyl]-5H-[1,3]thiazolo[3,2-a]pyrimidin-5-one]",29.4%,68.5%,,,
COc1cccc(/C=C/c2nc3sc4ccccc4n3c(=O)c2-c2ccc(C#N)cc2)c1OCC1CCC1 [Example 89],,,,26.90%,57.53%

# Other lines, results leading:
inhibition at 1 µM,inhibition at 10 µM,IC50,Percentage inhibition at 1.0 μM,Percentage inhibition at 10.0 μM,SMILES
69.1%,87.7%,500 to 1000 nM,,,"COc1cccc(/C=C/c2nc3sc(Cl)cn3c(=O)c2-c2ccc(C#N)cc2)c1OCC(C)(C)C [Example 80, 4-{2-Chloro-7-[(E)-2-(2-(2,2-dimethylpropoxy)-3-methoxyphenyl)vinyl]-5-oxo-5H-[1,3]thiazolo[3,2-a]pyrimidin-6-yl}benzonitrile]"
,,,5.84%,10.03%,"COc1cc(/C=C/c2nc3sc4ccccc4n3c(=O)c2-c2ccc(C(F)(F)F)cc2)ccc1OCCCC#N [Example 94, 2-{(E)-2-[(3-Cyanopropoxy-3-methoxy)phenyl]-1-ethenyl}-3-(4-trifluoromethyl-phenyl)-4H-benzo[4,5][1,3]thiazolo-[3,2-a]pyrimidin-4-one]"
,,,30.6%,55.9%,"CCOCCOc1cccc(/C=C/c2nc3sccn3c(=O)c2-c2ccc(OC(F)(F)F)cc2)c1OCC1CC1 [Example 62, 7-{(E)-2-[2-(Cyclopropylmethoxy)-3-(2-ethoxyethoxy)phenyl]-1-ethenyl}-6-(4-trifluoro-methoxyphenyl)-5H-[1,3]thiazolo[3,2-a]pyrimidin-5-one]"
58.1%,82.1%,250 to 500 nM,,,"COc1cccc(/C=C/c2nc3sccn3c(=O)c2-c2ccc(OC(F)(F)F)cc2)c1OC1CCCCC1 [Example 72, 7-[(E)-2-(2-Cyclohexyloxy-3-methoxyphenyl)-1-ethenyl]-6-[4-(trifluoromethoxy)phenyl]-5H-[1,3]thiazolo[3,2-a]pyrimidin-5-one]"
10.9%,23.7%,,,,COc1cccc(/C=C/c2nc3sc4ccccc4n3c(=O)c2-c2ccc(OC(F)(F)F)cc2)c1OCC1CC1 [Example 95]
27.1%,47.5%,,,,"COc1cccc(/C=C/c2nc3sc(Cl)cn3c(=O)c2-c2ccc(OC(F)(F)F)cc2)c1OCC(C)(C)C [Example 78, 2-Chloro-7-[(E)-2-(2-(2,2-dimethylpropoxy)-3-methoxyphenyl)vinyl]-6-[4-(trifluoromethoxy)phenyl]-5H-[1,3]thiazolo[3,2-a]pyrimidin-5-one]"
,,,6.53%,40.18%,"CCOCCOc1c(/C=C/c2nc3sc4ccccc4n3c(=O)c2-c2ccc(C(F)(F)F)cc2)cccc1OC [Example 93, 2-{(E)-2-[(2-Ethoxyethoxy)-3-methoxyphenyl]-1-ethenyl}-3-(4-trifluoromethyl-phenyl)-4H-benzo[4,5][1,3]thiazolo-[3,2-a]pyrimidin-4-one]"
15.4%,22%,,,,"N#CCCCOc1cccc(/C=C/c2nc3sccn3c(=O)c2-c2ccc(OC(F)(F)F)cc2)c1OCC1CC1 [Example 65, 7-{(E)-2-[2-(Cyclopropylmethoxy)-3-(3-cyanopropoxy)phenyl]-1-ethenyl}-6-(4-trifluoromethoxyphenyl)-5H-[1,3]thiazolo[3,2-a]pyrimidin-5-one]"
,,,23.11%,47.48%,"COCCOc1c(/C=C/c2nc3sc4ccccc4n3c(=O)c2-c2ccc(C(F)(F)F)cc2)cccc1OC [Example 92, 2-{(E)-2-[(2-Methoxyethoxy)-3-methoxyphenyl]-1-ethenyl}-3-(4-trifluoromethylphenyl)-4H-benzo[4,5][1,3]thiazolo-[3,2-a]pyrimidin-4-one]"
57.4%,70.3%,,,,"COc1cccc(/C=C/c2nc3scc(C(F)(F)F)n3c(=O)c2-c2ccc(C#N)cc2)c1OCC(C)(C)C [Example 82, 4-{7-[(E)-2-(3-Methoxy-2-neopentyloxyphenyl)-1-ethenyl]-5-oxo-3-(trifluoromethyl)-5H-[1,3]thiazolo[3,2-a]pyrimidin-6-yl}benzonitrile]"
86.3%,90.4%,< 250 nM,,,"COc1cccc(/C=C/c2nc3sc(C)cn3c(=O)c2-c2ccc(OC(F)(F)F)cc2)c1OCC1CC1 [Example 75, 7-[(E)-2-(2-Cyclopropylmethoxy-3-methoxyphenyl)-1-ethenyl]-2-methyl-6-[4-(trifluoromethoxy)phenyl]-5H-[1,3]thiazolo[3,2-a]pyrimidin-5-one]"
